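Results reflect a 48-hour exposure of cells in 96-well plates to compound at five concentrations. GI50 is the concentration that inhibits growth by half.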 Active and inactive are the calls of the source. Cut-off read from the data, not from the text of the source: active = GI50 up to about 1.1 µM and inactive = higher.
Experiments:
Test in all cases: growth of human tumour cells (NCI), 48 h
[1] = tested on: XF498
[2] = tested on: RXF 631
[3] = tested on: LXFL 529
[4] = tested on: DMS-114
[5] = tested on: HOP-18
[6] = tested on: KM-20L2
[7] = tested on: SNB-78
[8] = tested on: DLD-1
[9] = tested on: BT-549

Measured: GI50

O=S(=O)(/C=C/c1ccc(F)cc1)Cc1ccc(CS(=O)(=O)/C=C/c2ccc(F)cc2)cc1
inactive: [1] > 100 µM | [2] > 100 µM | [3] > 100 µM | [4] > 100 µM | [5] > 100 µM | [6] > 100 µM | [7] > 100 µM | [8] > 100 µM

CC(=O)OC1COC(N2C(=O)C(=O)c3cc(Br)ccc32)C(OC(C)=O)C1OC(C)=O (configuration not stated)
inactive: [1] > 100 µM | [2] > 100 µM | [3] > 100 µM | [4] > 100 µM | [5] > 100 µM | [6] > 100 µM | [7] > 100 µM | [8] > 100 µM

COc1ccccc1NC(=O)C1=C(C)NC(C)=C(C(=O)Nc2ccccc2OC)C1c1ccccc1OC
inactive: [2] > 100 µM | [3] > 100 µM | [4] 85.5 µM | [5] > 100 µM | [6] > 100 µM | [7] > 100 µM | [8] > 100 µM

O=C(CC(=O)N1N=C(c2ccccc2)C(/N=N/c2ccc(Cl)cc2)C1=O)Nc1ccccc1Cl (configuration not stated)
inactive: [1] 35.7 µM | [2] 40.6 µM | [3] 26.7 µM | [4] 90.6 µM | [5] 24.2 µM | [6] 80.9 µM | [7] 64 µM | [8] 30.3 µM

CN1C=C(C(N)=O)C2CC(O)[C@@](NC(=O)CS(N)(=O)=O)(C(=O)O)C2C1 (some centres not stated)
inactive: [1] 1.27 µM | [2] 2.98 µM | [4] 2.52 µM | [5] 8.41 µM | [6] 3.79 µM | [7] 2.75 µM | [8] 16.8 µM

O=C(Nc1ccn(CCO)c(=O)n1)c1ccccc1
inactive: [2] > 100 µM | [3] > 100 µM | [4] > 100 µM | [5] > 100 µM | [6] > 100 µM | [7] > 100 µM | [8] > 100 µM

Cc1cc(Cl)cc2c1NC(=O)C2(O)CC(=O)c1ccco1 (configuration not stated)
inactive: [1] > 100 µM | [2] > 100 µM | [3] > 100 µM | [4] > 100 µM | [5] 4.33 µM | [9] > 100 µM | [7] > 100 µM | [8] > 100 µM

COc1ccc2nc3cc(Cl)ccc3c(Sc3ccc(NC(C)=O)cc3)c2c1
inactive: [2] 8.85 µM | [3] 7.31 µM | [4] 6.84 µM | [5] > 29.9 µM | [6] > 21.3 µM | [7] 5.6 µM | [8] 6.89 µM

CN1C(=O)CNS1(=O)=O
inactive: [1] > 100 µM | [2] > 100 µM | [3] > 100 µM | [4] > 100 µM | [7] > 100 µM | [8] > 100 µM

COc1ccc2ccccc2c1C1=NC(C)(C)CO1
inactive: [1] > 100 µM | [2] > 100 µM | [3] > 100 µM | [5] > 100 µM | [6] > 100 µM | [8] > 100 µM

Cc1ccc(-c2nc3ccccc3c(=O)n2NC2OC(CO)C(O)C(O)C2O)cc1 (configuration not stated)
inactive: [1] > 100 µM | [2] > 100 µM | [3] > 100 µM | [4] > 100 µM | [5] > 100 µM | [6] > 100 µM | [7] > 100 µM

NC(CCC(=O)NC(CSSCCCCS(=O)O)C(=O)NCC(=O)O)C(=O)O (configuration not stated)
inactive: [1] > 100 µM | [2] > 100 µM | [3] > 100 µM | [4] > 100 µM | [5] > 100 µM | [6] > 100 µM | [7] > 100 µM | [8] > 100 µM
